Reference: PubChem BioAssay (NCI)
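Briefly, cells in 96-well plates were exposed to five compound concentrations for 48 h, and endpoints were estimated by linear interpolation. Abbreviation: GI50, concentration required for 50% inhibition of growth. At the TGI there is no net growth.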

What was measured:
Experiment in all cases: growth of human tumour cells (NCI), 48 h
OVCAR-4 ovarian = system: OVCAR-4 ovarian
786-0 renal = system: 786-0 renal
SNB-75 CNS = system: SNB-75 CNS
TK-10 renal = system: TK-10 renal
MDA-MB-231 breast = system: MDA-MB-231 breast
SW-620 colon = system: SW-620 colon
HS 578T breast = system: HS 578T breast
DU-145 prostate = system: DU-145 prostate
HCT-15 colon = system: HCT-15 colon
SF-268 CNS = system: SF-268 CNS
SF-295 CNS = system: SF-295 CNS
OVCAR-8 ovarian = system: OVCAR-8 ovarian
HCC-2998 colon = system: HCC-2998 colon
BT-549 breast = system: BT-549 breast
NCI-H460 lung = system: NCI-H460 lung
IGROV1 ovarian = system: IGROV1 ovarian
PC-3 prostate = system: PC-3 prostate
MDA-MB-435 = system: MDA-MB-435
HOP-62 NSCLC = system: HOP-62 NSCLC
HT29 colon = system: HT29 colon
CCRF-CEM leukemia = system: CCRF-CEM leukemia
UACC-257 melanoma = system: UACC-257 melanoma
KM12 colon = system: KM12 colon
NCI-H522 lung = system: NCI-H522 lung
MOLT-4 leukemia = system: MOLT-4 leukemia
NCI-H23 lung = system: NCI-H23 lung
T-47D breast = system: T-47D breast
LOX IMVI melanoma = system: LOX IMVI melanoma
UO-31 renal = system: UO-31 renal
NCI/ADR-RES ovarian = system: NCI/ADR-RES ovarian
MCF7 breast = system: MCF7 breast
SR leukemia = system: SR leukemia
OVCAR-5 ovarian = system: OVCAR-5 ovarian
UACC-62 melanoma = system: UACC-62 melanoma
RXF 393 renal = system: RXF 393 renal
SK-MEL-28 melanoma = system: SK-MEL-28 melanoma
ACHN renal = system: ACHN renal
U251 CNS = system: U251 CNS
SK-OV-3 ovarian = system: SK-OV-3 ovarian
SK-MEL-2 melanoma = system: SK-MEL-2 melanoma
A549 NSCLC = system: A549 NSCLC
HCT-116 colon = system: HCT-116 colon
CAKI-1 renal = system: CAKI-1 renal
HL-60(TB) leukemia = system: HL-60(TB) leukemia
MALME-3M melanoma = system: MALME-3M melanoma
SNB-19 CNS = system: SNB-19 CNS
SK-MEL-5 melanoma = system: SK-MEL-5 melanoma
RPMI-8226 leukemia = system: RPMI-8226 leukemia
K-562 leukemia = system: K-562 leukemia
M14 melanoma = system: M14 melanoma
A498 renal = system: A498 renal
SF-539 CNS = system: SF-539 CNS
HOP-92 NSCLC = system: HOP-92 NSCLC
SN12C renal = system: SN12C renal
NCI-H226 lung = system: NCI-H226 lung
COLO 205 colon = system: COLO 205 colon
EKVX NSCLC = system: EKVX NSCLC

## N#Cc1ncc(N2C(=O)C3(CCC3)N(c3ccc(OC4CCNCC4)nc3)C2=S)cc1C(F)(F)F
OVCAR-4 ovarian
  GI50: 18.2 µM
  TGI: 44.4 µM
786-0 renal
  GI50: 13.6 µM
  TGI: 26.8 µM
SNB-75 CNS
  GI50: 15.4 µM
  TGI: 50.1 µM
TK-10 renal
  GI50: 17.9 µM
  TGI: 39.1 µM
MDA-MB-231 breast
  GI50: 16.4 µM
  TGI: 33.6 µM
SW-620 colon
  GI50: 14.7 µM
  TGI: 29.5 µM
HS 578T breast
  GI50: 15.9 µM
  TGI: 41.5 µM
DU-145 prostate
  GI50: 18.8 µM
  TGI: 41.1 µM
HCT-15 colon
  GI50: 13.1 µM
  TGI: 27.8 µM
SF-268 CNS
  GI50: 18.6 µM
  TGI: 43.2 µM
SF-295 CNS
  GI50: 16.1 µM
  TGI: 31.5 µM
OVCAR-8 ovarian
  GI50: 25.1 µM
  TGI: 76.2 µM
HCC-2998 colon
  GI50: 15.6 µM
  TGI: 31.2 µM
BT-549 breast
  GI50: 12.9 µM
  TGI: 26 µM
NCI-H460 lung
  GI50: 16.8 µM
  TGI: 31.7 µM
IGROV1 ovarian
  GI50: 17.1 µM
  TGI: 36.3 µM
PC-3 prostate
  GI50: 13.9 µM
  TGI: 28.9 µM
MDA-MB-435
  GI50: 15.8 µM
  TGI: 31.3 µM
HOP-62 NSCLC
  GI50: 25.2 µM
  TGI: 67.4 µM
HT29 colon
  GI50: 8.92 µM
  TGI: 29.9 µM
CCRF-CEM leukemia
  GI50: 13.5 µM
  TGI: 39.1 µM
UACC-257 melanoma
  GI50: 12.1 µM
  TGI: 25.8 µM
KM12 colon
  GI50: 18.5 µM
  TGI: 37 µM
NCI-H522 lung
  GI50: 18.1 µM
  TGI: 35.5 µM
MOLT-4 leukemia
  GI50: 13.1 µM
  TGI: 42 µM
NCI-H23 lung
  GI50: 13.9 µM
  TGI: 32.1 µM
T-47D breast
  GI50: 12.2 µM
  TGI: 49.6 µM
LOX IMVI melanoma
  GI50: 11.2 µM
  TGI: 24 µM
UO-31 renal
  GI50: 11 µM
  TGI: 23.3 µM
NCI/ADR-RES ovarian
  GI50: 25.2 µM
  TGI: 81.9 µM
MCF7 breast
  GI50: 11.5 µM
  TGI: 26.4 µM
SR leukemia
  GI50: 3.37 µM
  TGI: 21.1 µM
OVCAR-5 ovarian
  GI50: 17.3 µM
  TGI: 46.8 µM
UACC-62 melanoma
  GI50: 15.9 µM
  TGI: 31.5 µM
RXF 393 renal
  GI50: 12.1 µM
  TGI: 25.8 µM
SK-MEL-28 melanoma
  GI50: 13.8 µM
  TGI: 27.4 µM
ACHN renal
  GI50: 17.7 µM
  TGI: 32 µM
U251 CNS
  GI50: 20.2 µM
  TGI: 48.7 µM
SK-OV-3 ovarian
  GI50: 60.5 µM
  TGI: > 100 µM
SK-MEL-2 melanoma
  GI50: 15.1 µM
  TGI: 30.5 µM
A549 NSCLC
  GI50: 27.7 µM
  TGI: > 100 µM
HCT-116 colon
  GI50: 11.7 µM
  TGI: 24.4 µM
CAKI-1 renal
  GI50: 14 µM
  TGI: 28.9 µM
HL-60(TB) leukemia
  GI50: 12.1 µM
  TGI: 33.9 µM
MALME-3M melanoma
  GI50: 13.2 µM
  TGI: 27.6 µM
SNB-19 CNS
  GI50: 36.8 µM
  TGI: > 100 µM
SK-MEL-5 melanoma
  GI50: 17.2 µM
  TGI: 32 µM
RPMI-8226 leukemia
  GI50: 11.5 µM
  TGI: 32 µM
K-562 leukemia
  GI50: 5.84 µM
  TGI: 34.4 µM
M14 melanoma
  GI50: 7.31 µM
  TGI: 20.6 µM
A498 renal
  GI50: 12.2 µM
  TGI: 32.7 µM
SF-539 CNS
  GI50: 15.4 µM
  TGI: 30 µM
HOP-92 NSCLC
  GI50: 1.11 µM
  TGI: 10.5 µM
SN12C renal
  GI50: 15.8 µM
  TGI: 36 µM
NCI-H226 lung
  GI50: 15.7 µM
  TGI: 34 µM
COLO 205 colon
  GI50: 14.2 µM
  TGI: 28.3 µM
EKVX NSCLC
  GI50: 18 µM
  TGI: 46.4 µM
